Structures are written as SMILES.

Our source for the IC50 values is patent publication US9567318B2, “Substituted pyrimidine compounds and uses thereof” (Memorial Sloan-Kettering Cancer Center, priority 2009, dated 2017).

Assay [1] has as its system Kasumi-1 acute myeloid leukemia cells. In words: Growth Inhibition Assay (Alamar blue), Kasumi-1. Format: cell-based, human. The following applies: Kasumi-1 cells. The protocol:
(§1) The IC50 values listed for some of these compounds illustrate the antiproliferative effects of the subject compounds and were obtained using the Growth Inhibition assays described herein.
(§2) Growth Inhibition Assay. Antiproliferative effects of inhibitors were evaluated using the dye Alamar blue. This reagent offers a rapid objective measure of cell viability in cell culture, and it uses the indicator dye resazurin to measure the metabolic capacity of cells, an indicator of cell viability. Briefly, cells were plated on Costar 96-well plates. For attached cells (such as SKBr3, MDA-MB-468, LNCaP, MRCS), 8,000 cells/well were used. For suspension cells (such as MOLM-13, Kasumi-1, OCI-Ly7, PBL), 20,000 cells/well were plated. Cells were allowed to incubate for 24 h at 37° C. before drug treatment. Drugs were added in triplicates at the indicated concentrations, and the plate was incubated for 72 h. Alamar Blue (440 μM) was added, and the plate read 6 h later using the Analyst GT (Fluorescence intensity mode, excitation 530 nm, emission 580 nm, with 560=dichroic mirror). Results were analyzed using the Softmax Pro software. The percentage cell growth inhibition was calculated by comparing fluorescence readings obtained from treated versus control cells, accounting for initial cell population (time zero).
In general terms: Alamar Blue is a resazurin reagent that responds to reducing activity.

Assay [2] concerns SKBr3 HER2+ breast cancer cells. In words: Growth Inhibition Assay (Alamar blue), SKBr3. Format: cell-based, human. To be noted: Homo sapiens, SK-BR-3, 72 h. The protocol: as §1, §2

Usually IC50 stands for the concentration that gives 50% inhibition. A lower IC50 goes with greater potency. For `COc1nc(N2CCOCC2)nc(OC)c1Sc1cccc(N)c1` [PDP2, 3-(4,6-dimethoxy-2-morpholinopyrimidin-5-ylthio)aniline], the IC50 in assay [1] (Homo sapiens, Kasumi 1, 72 h) is 79.7 µM; in assay [2] it was above 100 µM.

Regarding `C=CC(=O)Nc1cccc(Sc2c(OC)nc(N3CCOCC3)nc2OC)c1` [PDP3, N-(3-(4,6-dimethoxy-2-morpholinopyrimidin-5-ylthio)phenyl)acrylamide], the IC50 came to 11.4 µM in assay [1] (Homo sapiens, Kasumi 1, 72 h) and 16.5 µM in assay [2].

Turning to `CCC(=O)Nc1cccc(Sc2c(OC)nc(N3CCOCC3)nc2OC)c1` [PDP4, N-(3-(4,6-dimethoxy-2-morpholinopyrimidin-5-ylthio)phenyl)propionamide], the IC50 in assay [1] (Homo sapiens, Kasumi 1, 72 h) was above 100 µM; in assay [2], above 100 µM.

Turning to `C=C(C)C(=O)Nc1cccc(Sc2c(OC)nc(N3CCOCC3)nc2OC)c1` [PDP5, N-(3-(4,6-dimethoxy-2-morpholinopyrimidin-5-ylthio)phenyl)methacrylamide], it took 18.1 µM to reach half-maximal inhibition in assay [2] (IC50).

Molecule `COc1nc(N2CCOCC2)nc(OC)c1Sc1cccc(NC(=O)C2CC2)c1` [PDP6, N-(3-(4,6-dimethoxy-2-morpholinopyrimidin-5-ylthio)phenyl)cyclopropanecarboxamide] yielded an IC50 in assay [2] of 9.9 µM.

The molecule `C=CC(=O)Nc1cc(N)nc(Sc2c(OCC)nc(N3CCOCC3)nc2OCC)n1` [YK44, N-(6-amino-2-(4,6-diethoxy-2-morpholinopyrimidin-5-ylthio)pyrimidin-4-yl)acrylamide] returned a concentration for half-maximal inhibition (IC50) in assay [1] (Homo sapiens, Kasumi 1, 72 h) of 1.2 µM.

On to `CCOc1nc(N2CCOCC2)nc(OCC)c1Sc1nc(N)cc(NC(=O)c2ccco2)n1` [YK49, N-(6-amino-2-(4,6-diethoxy-2-morpholinopyrimidin-5-ylthio)pyrimidin-4-yl)furan-2-carboxamide], for which the IC50 in assay [1] (Homo sapiens, Kasumi 1, 72 h) was above 100 µM.

On to `C=CC(=O)Nc1cc(N)nc(Sc2c(OC)nc(N)nc2OC)n1` [YK50, N-(6-amino-2-(2-amino-4,6-dimethoxypyrimidin-5-ylthio)pyrimidin-4-yl)acrylamide], for which half-maximal inhibition in assay [1] (Homo sapiens, Kasumi 1, 72 h) (IC50) required 1.5 µM.

On to `COc1nc(N2CCN(C)CC2)nc(OC)c1Sc1nc(N)cc(NC(=O)CCN(C)C)n1` [YK51, N-(6-amino-2-(4,6-dimethoxy-2-(4-methylpiperazin-1-yl)pyrimidin-5-ylthio)pyrimidin-4-yl)-3-(dimethylamino)propanamide], for which the IC50 in assay [1] (Homo sapiens, Kasumi 1, 72 h) is 8 µM.

For the molecule `COc1nc(NCCCCCCO)nc(OC)c1Sc1nc(N)cc(N)n1` [YK52, 6-(5-(4,6-diaminopyrimidin-2-ylthio)-4,6-dimethoxypyrimidin-2-ylamino)hexan-1-ol], in assay [1] (Homo sapiens, Kasumi 1, 72 h), the concentration for half-maximal inhibition (IC50) came to 779 µM.

The molecule `COc1nc(N2CCN(C)CC2)nc(OC)c1Sc1nc(N)cc(NC(C)=O)n1` [YK53, N-(6-amino-2-(4,6-dimethoxy-2-(4-methylpiperazin-1-yl)pyrimidin-5-ylthio)pyrimidin-4-yl)acetamide] returned an IC50 in assay [1] (Homo sapiens, Kasumi 1, 72 h) of 16 µM.

For `C=CC(=O)Nc1cc(N)nc(Sc2c(OC)nc(N3CCN(CCOCCOCCOCCO)CC3)nc2OC)n1` [YK54, N-(6-amino-2-(2-(4-(2-(2-(2-(2-hydroxyethoxy)ethoxy)ethoxy)ethyl)piperazin-1-yl)-4,6-dimethoxypyrimidin-5-ylthio)pyrimidin-4-yl)acrylamide], the 50% inhibitory concentration (IC50) in assay [1] (Homo sapiens, Kasumi 1, 72 h) was 4.8 µM.

`C=CC(=O)Nc1cc(N)nc(Sc2c(OC)nc(N3CCN(CCOCCOCCOCCOC(=O)CCCCC4SCC5NC(=O)NC54)CC3)nc2OC)n1` (stereo not shown) [YK55, 2-(2-(2-(2-(4-(5-(4-acrylamido-6-aminopyrimidin-2-ylthio)-4,6-dimethoxypyrimidin-2-yl)piperazin-1-yl)ethoxy)ethoxy)ethoxy)ethyl 5-(2-oxohexahydro-1H-thieno[3,4-d]imidazol-4-yl)pentanoate]: half-maximal inhibition in assay [1] (Homo sapiens, Kasumi 1, 72 h) (IC50) required 13.1 µM.

The molecule `COc1nc(N)nc(OC)c1Sc1nccc(NC(C)=O)n1` [YK61, N-(2-(2-amino-4,6-dimethoxypyrimidin-5-ylthio)pyrimidin-4-yl)acetamide] yielded an IC50 in assay [1] (Homo sapiens, Kasumi 1, 72 h) of 94.4 µM.

On to `COc1nc(F)nc(OC)c1Sc1nccc(NC(C)=O)n1` [YK62, N-(2-(2-fluoro-4,6-dimethoxypyrimidin-5-ylthio)pyrimidin-4-yl)acetamide], for which the IC50 in assay [1] (Homo sapiens, Kasumi 1, 72 h) was above 100 µM.

Turning to `COc1nc(N2CCN(C)CC2)nc(OC)c1Sc1nccc(NC(C)=O)n1` [YK63, N-(2-(4,6-dimethoxy-2-(4-methylpiperazin-1-yl)pyrimidin-5-ylthio)pyrimidin-4-yl)acetamide], it took 11.2 µM to reach half-maximal inhibition in assay [1] (Homo sapiens, Kasumi 1, 72 h) (IC50).

`COc1nc(N2CCCCC2)nc(OC)c1Sc1nccc(NC(C)=O)n1` [YK64, N-(2-(4,6-dimethoxy-2-(piperidin-1-yl)pyrimidin-5-ylthio)pyrimidin-4-yl)acetamide] displayed an IC50 in assay [1] (Homo sapiens, Kasumi 1, 72 h) of 4 µM.

In assay [1] (Homo sapiens, Kasumi 1, 72 h), `COc1nc(N2CCOCC2)nc(OC)c1Sc1nccc(NC(C)=O)n1` [YK65, N-(2-(4,6-dimethoxy-2-morpholinopyrimidin-5-ylthio)pyrimidin-4-yl)acetamide] had an IC50 of 15.7 µM.

For the molecule `COc1nc(N2CCCC2)nc(OC)c1Sc1nccc(NC(C)=O)n1` [YK66, N-(2-(4,6-dimethoxy-2-(pyrrolidin-1-yl)pyrimidin-5-ylthio)pyrimidin-4-yl)acetamide], in assay [1] (Homo sapiens, Kasumi 1, 72 h), half-maximal inhibition (IC50) was put at 48.3 µM.

Take `COc1nc(N2CCN(C)CC2)nc(OC)c1Sc1nccc(N)n1` [YK67, 2-(4,6-dimethoxy-2-(4-methylpiperazin-1-yl)pyrimidin-5-ylthio)pyrimidin-4-amine]: the IC50 in assay [1] (Homo sapiens, Kasumi 1, 72 h) was found to be 93.5 µM.

With `COc1nc(N2CCCCC2)nc(OC)c1Sc1nccc(N)n1` [YK68, 2-(4,6-dimethoxy-2-(piperidin-1-yl)pyrimidin-5-ylthio)pyrimidin-4-amine], it took 14.7 µM to reach half-maximal inhibition in assay [1] (Homo sapiens, Kasumi 1, 72 h) (IC50).

`COc1nc(N2CCOCC2)nc(OC)c1Sc1nccc(N)n1` [YK69, 2-(4,6-dimethoxy-2-morpholinopyrimidin-5-ylthio)pyrimidin-4-amine] yielded an IC50 in assay [1] (Homo sapiens, Kasumi 1, 72 h) of 54.2 µM.

`COc1nc(N2CCCC2)nc(OC)c1Sc1nccc(N)n1` [YK70, 2-(4,6-dimethoxy-2-(pyrrolidin-1-yl)pyrimidin-5-ylthio)pyrimidin-4-amine]: in assay [1] (Homo sapiens, Kasumi 1, 72 h), the IC50 was 25.2 µM.

On to `C=CC(=O)Nc1ccnc(Sc2c(OC)nc(N3CCN(C)CC3)nc2OC)n1` [YK71, N-(2-(4,6-dimethoxy-2-(4-methylpiperazin-1-yl)pyrimidin-5-ylthio)pyrimidin-4-yl)acrylamide], for which the IC50 in assay [1] (Homo sapiens, Kasumi 1, 72 h) worked out at 0.8 µM; in assay [2], 1.2 µM.

For `C=CC(=O)Nc1ccnc(Sc2c(OC)nc(N3CCCCC3)nc2OC)n1` [YK72, N-(2-(4,6-dimethoxy-2-(piperidin-1-yl)pyrimidin-5-ylthio)pyrimidin-4-yl)acrylamide], inhibition in assay [1] (Homo sapiens, Kasumi 1, 72 h) was half-maximal at 2 µM (IC50).

Take `C=CC(=O)Nc1ccnc(Sc2c(OC)nc(N3CCOCC3)nc2OC)n1` [YK73, N-(2-(4,6-dimethoxy-2-morpholinopyrimidin-5-ylthio)pyrimidin-4-yl)acrylamide]: the IC50 in assay [1] (Homo sapiens, Kasumi 1, 72 h) amounted to 1.9 µM; in assay [2], 11.6 µM.

For `C=CC(=O)Nc1ccnc(Sc2c(OC)nc(N3CCCC3)nc2OC)n1` [YK74, N-(2-(4,6-dimethoxy-2-(pyrrolidin-1-yl)pyrimidin-5-ylthio)pyrimidin-4-yl)acrylamide], the IC50 stood at 42.2 µM in assay [1] (Homo sapiens, Kasumi 1, 72 h) and 4.3 µM in assay [2].

As for `COc1nc(N2CC[N+](C)([O-])CC2)nc(OC)c1Sc1nccc(NC(C)=O)n1` [YK75, 4-(5-(4-acetamidopyrimidin-2-ylthio)-4,6-dimethoxypyrimidin-2-yl)-1-methylpiperazine 1-oxide], the IC50 in assay [2] was above 100 µM.

For `C=CC(=O)Nc1ccnc(Sc2c(OC)nc(OC)nc2OC)n1` [YK76, N-(2-(2,4,6-trimethoxypyrimidin-5-ylthio)pyrimidin-4-yl)acrylamide], the concentration for half-maximal inhibition (IC50) was 22.5 µM in assay [1] (Homo sapiens, Kasumi 1, 72 h) and 2.4 µM in assay [2].

The molecule `C/C=C/C(=O)Nc1ccnc(Sc2c(C)nc(N3CCN(C)CC3)nc2C)n1` [YK87, (E)-N-(2-(4,6-dimethyl-2-(4-methylpiperazin-1-yl)pyrimidin-5-ylthio)pyrimidin-4-yl)but-2-enamide] had an IC50 in assay [1] (Homo sapiens, Kasumi 1, 72 h) of 16 µM.

Regarding `C=C(C)C(=O)Nc1ccnc(Sc2c(OC)nc(N3CCCC3)nc2OC)n1` [YK108, N-(2-(4,6-dimethoxy-2-(pyrrolidin-1-yl)pyrimidin-5-ylthio)pyrimidin-4-yl)methacrylamide], in assay [1] (Homo sapiens, Kasumi 1, 72 h), the IC50 turned out to be 9.5 µM.

For the molecule `CCC(=O)Nc1cccc(Sc2c(OC)nc(N3CCN(C)CC3)nc2OC)c1` [YK130, N-(3-(4,6-dimethoxy-2-(4-methylpiperazin-1-yl)pyrimidin-5-ylthio)phenyl)propionamide], the IC50 in assay [2] came out at 18.3 µM.

For the molecule `CCC(=O)Nc1cccc(Sc2c(OC)nc(N3CCN(CCOCCOCCOCCO)CC3)nc2OC)c1` [YK141, N-(3-(2-(4-(2-(2-(2-(2-hydroxyethoxy)ethoxy)ethoxy)ethyl)piperazin-1-yl)-4,6-dimethoxypyrimidin-5-ylthio)phenyl)propionamide], the half-inhibitory concentration (IC50) in assay [2] is 38.9 µM.

In assay [2], `CCC(=O)Nc1cccc(Sc2c(OC)nc(N3CCN(CCOCCOCCOCCOC(=O)CCCCC4SCC5NC(=O)NC54)CC3)nc2OC)c1` (stereo not shown) [YK142, 2-(2-(2-(2-(4-(4,6-dimethoxy-5-(3-propionamidophenylthio)pyrimidin-2-yl)piperazin-1-yl)ethoxy)ethoxy)ethoxy)ethyl 5-(2-oxohexahydro-1H-thieno[3,4-d]imidazol-4-yl)pentanoate] showed an IC50 of 47.9 µM.

Consider `CCC(=O)Nc1cccc(Sc2c(C)nc(N3CCNCC3)nc2C)c1` [YK146, N-(3-(4,6-dimethyl-2-(piperazin-1-yl)pyrimidin-5-ylthio)phenyl)propionamide], for which the IC50 in assay [1] (Homo sapiens, Kasumi 1, 72 h) was found to be 8.8 µM; in assay [1] (72 h), 9 µM.
